Results taken from article PMC12583827, “Harnessing microbial-derived metabolites in the urinary tract to prevent infection induced catheter encrustation” (Nature Communications, 2025).
Counter-ions that a name gives are not always drawn. Like-named read-outs stand apart in the source and are kept apart here. Where a SMILES comes first, the peptide text is derived from it.

Assays:
P. mirabilis urease [1] = target: T1, P. mirabilis urease (Proteus mirabilis, UniProt P17086); format: cell-based; conditions: for Dampens urease activity: biosynthetic pathway/functional group screen; for effect on P. mirabilis urease activity (whole cell): potassium phosphate buffer, dose response
T1 construct: it utilizes whole bacterial cells, rather than isolated enzyme preparations; endogenous in cells; host or cells: Proteus mirabilis HI4320, live whole cells
T1 sequence (P17086 whole entry): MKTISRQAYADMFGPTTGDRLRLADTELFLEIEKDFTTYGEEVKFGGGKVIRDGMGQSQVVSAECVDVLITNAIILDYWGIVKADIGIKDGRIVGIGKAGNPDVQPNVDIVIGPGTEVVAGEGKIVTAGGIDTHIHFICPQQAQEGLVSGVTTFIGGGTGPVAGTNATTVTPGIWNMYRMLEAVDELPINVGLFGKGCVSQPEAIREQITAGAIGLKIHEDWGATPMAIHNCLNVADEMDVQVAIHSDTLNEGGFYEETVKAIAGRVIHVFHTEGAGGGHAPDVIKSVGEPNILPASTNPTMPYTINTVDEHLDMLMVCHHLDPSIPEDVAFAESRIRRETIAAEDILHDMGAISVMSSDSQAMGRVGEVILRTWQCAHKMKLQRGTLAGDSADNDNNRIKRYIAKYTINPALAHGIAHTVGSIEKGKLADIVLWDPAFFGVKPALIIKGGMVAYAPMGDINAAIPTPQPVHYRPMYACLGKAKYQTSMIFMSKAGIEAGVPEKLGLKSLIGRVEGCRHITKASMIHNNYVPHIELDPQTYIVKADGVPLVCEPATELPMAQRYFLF
T1 sequence (P17088 whole entry, further chain): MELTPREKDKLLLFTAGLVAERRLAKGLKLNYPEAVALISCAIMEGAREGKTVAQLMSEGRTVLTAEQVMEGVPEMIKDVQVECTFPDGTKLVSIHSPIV
T1 sequence (P17087 whole entry, further chain): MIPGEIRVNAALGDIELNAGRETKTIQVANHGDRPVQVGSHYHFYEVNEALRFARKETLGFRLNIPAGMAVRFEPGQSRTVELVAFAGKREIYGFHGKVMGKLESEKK

[2] = target: T2, urease of P. mirabilis HI4320 cell free extracts (Proteus mirabilis, UniProt P17086); format: biochemical
T2 construct: 20ul of cell-free extract were distributed into a 96-well plate in place of the whole cell bacterial suspensions; endogenous in cells; host or cells: Proteus mirabilis HI4320, urea-induced; freeze-thaw and sonication lysate, clarified supernatant
T2 sequence (P17088 whole entry): as the sequence (P17088 whole entry, further chain) above
T2 sequence (P17086 whole entry): as the sequence (P17086 whole entry) above
T2 sequence (P17087 whole entry, further chain): as the sequence (P17087 whole entry, further chain) above
Description: To measure urease activity of the cell free extracts of P. mirabilis, P. mirabilis was cultured for ~18 h in LB broth and then sub cultured until it reached mid-log growth phase (OD600 0.2-0.5). Cultures were spun down to pellet at 10,000 rcf for 10 minutes and resuspended in saline to a final OD600 of 1.0. Cultures were then diluted 1:10 in potassium phosphate buffer pH7 supplemented with 500 mM urea and incubated at 37 °C with shaking for 1 h to induce its urease enzyme production. The isogenic urease mutant Pm ureF::kan (Supplementary Data 1) served as negative control. Cultures then were spun down to pellet at 10,000 rcf for 10 minutes and resuspended in 2 mL saline. Cultures were subjected to four cycles of freezing in liquid nitrogen and thawing in a 37 °C water bath. Cultures were then probe sonicated (on ice) at 25% amplitude for 10 sec. Sonicated cultures were centrifuged at 18,900 Xg for 5 min and supernatants were transferred to a clean tube and stored on ice. To measure urease activity of cell free extracts, the previously described assay was modified such that 20ul of cell-free extract were distributed into a 96-well plate in place of the whole cell bacterial suspensions. Acetohydroxamic acid (AHA), was used as a positive control. Percent of maximum urease activity was calculated using Area Under the Curve (AUC) relative to untreated cell free extracts of P. mirabilis.

Jack Bean Urease (JBU) = target: T3, Jack Bean Urease (JBU) (Canavalia ensiformis, UniProt P07374); format: biochemical; conditions: 0.1 U JBU, 500 mM urea
T3 construct: purchased Sigma-Aldrich
T3 sequence (P07374 whole entry, looked up): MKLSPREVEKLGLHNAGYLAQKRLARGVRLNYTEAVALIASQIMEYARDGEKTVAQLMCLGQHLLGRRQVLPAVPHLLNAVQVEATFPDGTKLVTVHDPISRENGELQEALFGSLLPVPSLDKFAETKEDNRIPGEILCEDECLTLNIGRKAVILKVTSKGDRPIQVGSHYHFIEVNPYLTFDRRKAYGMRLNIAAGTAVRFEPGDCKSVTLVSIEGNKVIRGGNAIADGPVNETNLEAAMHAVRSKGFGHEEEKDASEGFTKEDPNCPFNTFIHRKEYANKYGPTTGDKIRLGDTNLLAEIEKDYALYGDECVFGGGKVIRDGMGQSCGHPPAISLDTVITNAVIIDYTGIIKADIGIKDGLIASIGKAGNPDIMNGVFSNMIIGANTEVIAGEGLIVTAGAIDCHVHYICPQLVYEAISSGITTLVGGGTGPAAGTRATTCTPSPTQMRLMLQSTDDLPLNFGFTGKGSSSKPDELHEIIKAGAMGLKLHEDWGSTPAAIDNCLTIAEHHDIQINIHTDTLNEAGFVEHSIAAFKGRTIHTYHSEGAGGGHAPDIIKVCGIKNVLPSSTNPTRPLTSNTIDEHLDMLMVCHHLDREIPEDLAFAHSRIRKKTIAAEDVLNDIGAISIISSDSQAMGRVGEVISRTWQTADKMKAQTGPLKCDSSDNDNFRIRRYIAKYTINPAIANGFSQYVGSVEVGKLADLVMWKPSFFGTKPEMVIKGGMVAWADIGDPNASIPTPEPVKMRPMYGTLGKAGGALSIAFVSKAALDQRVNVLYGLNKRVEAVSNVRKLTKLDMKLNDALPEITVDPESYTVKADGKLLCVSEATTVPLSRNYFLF
Description: To measure Jack Bean urease activity, the previously described assay was modified such that 0.1 U (1U liberates 1 µmol of ammonia from urea per minute) of JBU (Sigma-Aldrich urease from Canavalia ensiformis) were distributed into a 96-well plate in place of the bacterial suspensions. Acetohydroxamic acid (AHA), was used as a positive control and a vehicle control was used as a negative control. Percent of maximum urease activity was calculated using Area Under the Curve (AUC) relative to untreated bacteria of interest or untreated JBU. Urease activity measurement in MRSA was adapted from a recently published semi quantitative assay (See Supplementary materials for details)[48].
414 Supplementary Figure 13. Microbial metabolites dampen activity of purified Jack Bean
415 Urease (JBU). 0.1 U of JBU (1U liberates 1 µmol of ammonia from urea per minute) was
416 incubated at 37 °C with shaking in urease-dampening metabolites, 500mM urea, and phenol red.
417 A urea analogue, AHA, served as the positive control for inhibition of JBU. Absorbance
418 (OD562) was measured every 60 seconds for 90 minutes, and activity is expressed as percent of
419 maximum activity (% Max Activity) relative to untreated JBU. Graphs show mean±SD for 3
420 independent experiments with 3 technical replicates each. Data were analyzed by two tailed one
421 sample t-test to a hypothetical value of 100% activity. ***P<0.001, **P<0.002, *P<0.033.
(1 picture or pasted object on this page, not shown here)

[3] = target: T4, urease of P. mirabilis cell free extracts (Proteus mirabilis, UniProt P17086); format: biochemical; conditions: for type of urease inhibition: Michaelis-Menten parameters, Lineweaver-Burke plot
T4 construct: 20ul of cell-free extract were distributed into a 96-well plate in place of the whole cell bacterial suspensions; endogenous in cells; host or cells: Proteus mirabilis HI4320, urea-induced; freeze-thaw and sonication lysate, clarified supernatant
T4 sequence (P17086 whole entry): as the sequence (P17086 whole entry) above
T4 sequence (P17088 whole entry, further chain): as the sequence (P17088 whole entry, further chain) above
T4 sequence (P17087 whole entry, further chain): as the sequence (P17087 whole entry, further chain) above
Description: For the kinetic analysis of the urease reaction in the presence of urease dampening metabolites, urease activity assays were repeated with the P. mirabilis cell free extracts. Six different inhibitor concentrations that gave linear rates of reaction over a period of 120 min were tested for their effects on urease activity in the presence of urea concentrations ranging from 0 to 500 mM. Simple linear regression was performed on the absorbance (OD562) over 120 minutes for each condition and plotted as Initial velocity (slope) vs urea concentration. These initial hyperbolic plots were converted to double-reciprocal Lineweaver-Burke plots, and the pattern of inhibition inferred from the point of intersection of the lines. Finally, the Ki for a particular compound was determined by plotting the Km/Vmax ratio (the slope of the Lineweaver-Burke plots) of each line as a function of the inhibitor concentration as described by ref. [49]. The X-intercept corresponded to –Ki.

P. mirabilis urease [4] = target: T1, P. mirabilis urease; format: cell-based
Description: To assess the synergistic effects of dampening metabolites when used in combination with each other, P. mirabilis urease activity was measured as described above. Between 4-6 different concentrations for each dampening metabolite were tested both alone and in combination (See Fig. 6a for example). […] To account for variability between experiments, all conditions tested were performed on a single 96-well plate with three technical replicates for each condition. To compare between biologic replicates, percent inhibition relative to untreated P. mirabilis was calculated for each condition using the average area under the curve over 120-180 minutes (so that the positive control activity curve saturated without any increase in the negative control curve).
Statistical analysis was conducted using a one sample T test of the combination index compared to a hypothetical value of 1 (additive effect). […] Therefore, combination indexes were calculated using a desired effect size less than 40% were indicated with an * in Fig. 6b and in Supplementary Data 5.

[5] = Buffering capacity assay (NaOH titration, phenol red); format: physicochemical; conditions: high concentrations of metabolite in potassium phosphate buffer with phenol red
Description: Known concentrations of sodium hydroxide were added to each well of a 96 well plate in combination with candidate dampening metabolite of interest buffered 1:10 in potassium phosphate buffer pH7. 0.01% phenol red was added to each well, and absorbance (OD562) was measured in a Synergy H1 plate reader (BioTek).

[6] = screen of candidate metabolites, highest concentration tested 20mM, * Trending but not statistically significant
[7] = highest concentration tested 20mM
[8] = highest concentration tested 10mM in 20%DMSO

In the case of `O=C([O-])CCC(O)C(=O)[O-].[Na+].[Na+]` (racemic) [2-hydroxyglutarate, DL-α-Hydroxyglutaric acid disodium salt], the Urease dampening activity (P. mirabilis urease [1]; [6]) is reported as “No”.

For `NCCc1c[nH]cn1` [Histamine free base], the Urease dampening activity (P. mirabilis urease [1]; [6]) was “Yes*”.

In the case of `O=c1[nH]c(=O)c2nc[nH]c2[nH]1` [xanthine, Xanthine], the Urease dampening activity (P. mirabilis urease [1]; highest concentration tested 400uM) is reported as “No”.

With `CCC(C)C(=O)C(=O)[O-].[Na+]` (racemic) [3-methyl-2-oxovalerate, (±)-3-Methyl-2-oxovaleric acid sodium salt] the Urease dampening activity (P. mirabilis urease [1]; [6]) was “No”.

With `O=C(O)C(=O)Cc1ccc(O)cc1` [4-hydroxyphenylpyruvate, 4-Hydroxyphenylpyruvic acid] the Urease dampening activity (P. mirabilis urease [1]; highest concentration tested 15mM in 10% ethanol) was “No”.

In the case of `O=C(O)C(=O)Cc1cnc[nH]1` [Imidazole pyruvate, Imidazole pyruvic acid hydrobromide hydrate], the Dampens urease activity (P. mirabilis urease [1]; highest concentration tested 5mM) is reported as “No”.

In the case of `N[C@@H](Cc1ccc(O)cc1)C(=O)O` [tyrosine, L-Tyrosine disodium salt dihydrate], the Urease dampening activity (P. mirabilis urease [1]; highest concentration tested 2.5mM) is reported as “No”.

In the case of `Nc1ncnc2c1ncn2C1OC(COP(=O)(O)O)C(O)C1O` (stereo not shown) [adenosine 5'-monophosphate (AMP), AMP sodium salt hydrate], the Urease dampening activity (P. mirabilis urease [1]; [6]) is reported as “No”.

For `CC(C)C[C@H](N)C(=O)NCC(=O)O` [leucylglycine, L-Leucylglycine hydrate] (H-Leu-Gly-OH), the “effect on P. mirabilis urease activity (whole cell)” value (P. mirabilis urease [1]) was “reproducibly decreased”, the Urease dampening activity (P. mirabilis urease [1]; [6]) was “Yes” and the “urease activity of cell free P. mirabilis extracts” value [2] was “at least partially inhibiting”. For the same molecule, the JBU activity (Jack Bean Urease (JBU)) was “inhibited”, the “change of estimated Km on addition of metabolite” value [3] was “increase” and the “change of estimated Vmax on addition of metabolite” value [3] was “decrease”. The “type of urease inhibition” value [3] was “mixed inhibitors” and the “concentrations required to achieve a significant combination index” value (P. mirabilis urease [4]) was over 50 mM.

For `OC[C@H]1O[C@@](CO)(O[C@H]2O[C@H](CO)[C@@H](O)[C@H](O)[C@H]2O)[C@@H](O)[C@@H]1O` [sucrose, Sucrose], the Urease dampening activity (P. mirabilis urease [1]; [6]) was “No”.

With `Cl.Cl.NCCCCCN` [Cadaverine dihydrochloride] the Urease dampening activity (P. mirabilis urease [1]; [6]) was “No”.

In the case of `NCCCCCN` [cadaverine, Cadaverine], the Urease dampening activity (P. mirabilis urease [1]; [6]) is reported as “No”.

With `CC(C)CC(=O)C(=O)O` [4-methyl-2-oxopentanoate, 4-Methyl-2-oxovaleric acid] the Urease dampening activity (P. mirabilis urease [1]; [6]) was “No”.

For `O=C1NC(Cc2ccccc2)C(=O)N2CCCC12` (stereo not shown) [cyclo(phe-pro), Cyclo(Phe-Pro)], the Urease dampening activity (P. mirabilis urease [1]; [6]) was “No”.

With `NC(COP(=O)(O)O)C(=O)O` (racemic) [Ophospho-D,L-serine] the Urease dampening activity (P. mirabilis urease [1]; [6]) was “No”.

For `NCC(=O)O` [Glycine], the Dampens urease activity (P. mirabilis urease [1]; [7]) was “No”.

For `c1c[nH]cn1` [imidazole, Imidazole], the Dampens urease activity (P. mirabilis urease [1]; [7]) was “Yes”, the “effect on P. mirabilis urease activity (whole cell)” value (P. mirabilis urease [1]) was “additional hits” and the “urease activity of cell free P. mirabilis extracts” value [2] was “at least partially inhibiting”. The JBU activity (Jack Bean Urease (JBU)) was “inhibited”, the “change of estimated Km on addition of metabolite” value [3] was “increase” and the “change of estimated Vmax on addition of metabolite” value [3] was “decrease”. The “type of urease inhibition” value [3] was “mixed inhibitors” and the “buffering capacity: absorbance (OD562) across NaOH concentrations” value [5] was “consistent reduction in absorbance compared to the control”.

In the case of `NC(N)=NCCC[C@@H](N)C(=O)O` [D-Arginine], the Urease dampening activity (P. mirabilis urease [1]; [6]) is reported as “No”.

In the case of `N[C@@H](Cc1c[nH]cn1)C(=O)O` [L-Histidine], the Dampens urease activity (P. mirabilis urease [1]; [7]) is reported as “No”.

With `O=Cc1c[nH]c2ccccc12` [3-formylindole, Indole-3-carboxyaldehyde] the Urease dampening activity (P. mirabilis urease [1]; [8]) was “No”.

For `N[C@@H](COP(=O)(O)O)C(=O)O` [Ophospho-L-serine], the Urease dampening activity (P. mirabilis urease [1]; [6]) was “No”.

With `O=C(O)C(O)Cc1ccccc1` (racemic) [Phenyllactate, (+/-)-3-Phenyllactic acid] the Dampens urease activity (P. mirabilis urease [1]; [7]) was “No”.

In the case of `NC(N)=NCCCC[C@H](N)C(=O)O` [homoarginine, H-HoArg-OH], the Urease dampening activity (P. mirabilis urease [1]; [6]) is reported as “No”.

In the case of `CC(=O)O` [Acetic acid, Acetic Acid, Glacial], the Dampens urease activity (P. mirabilis urease [1]; [7]) is reported as “No”.

For `Nc1ccn([C@@H]2O[C@H](CO)[C@@H](O)[C@H]2O)c(=O)n1` [cytidine, Cytidine], the Urease dampening activity (P. mirabilis urease [1]; [6]) was “No”.

With `O=C(O)C(=O)c1c[nH]c2ccccc12` [3-indoleglyoxylic acid] the Urease dampening activity (P. mirabilis urease [1]; [8]) was “No”.

In the case of `CC(=O)NCCCCN.Cl` [N-acetylputrescine, N-Acetylputrescine Hydrochloride], the Urease dampening activity (P. mirabilis urease [1]; [6]) is reported as “No”.

For `O=C([O-])[C@H](O)[C@@H](O)[C@H](O)[C@H](O)CO.[Na+]` [gluconate, Gluconic acid Sodium Salt], the Urease dampening activity (P. mirabilis urease [1]; [6]) was “No”.

In the case of `N[C@@H](Cc1ccccc1)C(=O)O` [phenylalanine, L-phenylalanine], the Urease dampening activity (P. mirabilis urease [1]; [6]) is reported as “No”.

For `CC[C@H](C)[C@H](NC(C)=O)C(=O)O` [N-acetylisoleucine, N-acetyl-L-isoleucine], the Urease dampening activity (P. mirabilis urease [1]; [6]) was “No”.

In the case of `Nc1ncnc2c1ncn2[C@@H]1O[C@@H]2COP(=O)(O)O[C@H]2[C@H]1O` [adenosine 3',5'-cyclic monophosphate (cAMP)], the Urease dampening activity (P. mirabilis urease [1]; [6]) is reported as “No”.

With `NCCCCN` [putrescine, Putrescine Dihydrochloride] the Urease dampening activity (P. mirabilis urease [1]; [6]) was “No”.

In the case of `O=C(O)[C@@H](O)Cc1cnc[nH]1` [imidazole lactate], the “effect on P. mirabilis urease activity (whole cell)” value (P. mirabilis urease [1]) is reported as “reproducibly decreased”.

With `CC(=O)NCCCCCN` [N-(5-Aminopentyl)acetamide] the Urease dampening activity (P. mirabilis urease [1]; [6]) was “No”.

For `O=C1N[C@@H](Cc2ccc(O)cc2)C(=O)N2CCC[C@@H]12` [cyclo(pro-tyr), Cyclo(-Pro-Tyr)], the Urease dampening activity (P. mirabilis urease [1]; [6]) was “No”.

With `C[C@H](O)C(=O)O` [L-Lactic acid, L-(+)-Lactic acid] the Dampens urease activity (P. mirabilis urease [1]; [7]) was “No”.

In the case of `NCCc1ccccc1` [phenethylamine, 2-Phenylethylamine], the Urease dampening activity (P. mirabilis urease [1]; [6]) is reported as “No”.

For `N=C(N)NCCC[C@H](N)C(=O)O` [L-Arginine], the Urease dampening activity (P. mirabilis urease [1]; [6]) was “No”.
